# Data taken from patent US20230287003A1, “BCL6 INHIBITORS” (Cancer Research Technology Limited, priority 2018, published 2023).
# Molecular target: human BCL6 BTB domain (Trx-6×His-BCL6) / BCOR-AF633 peptide (Homo sapiens (Human), UniProt P41182)
# Test: HTRF assay
# Type: binding
# Conditions: 1 nM Trx-6×His-BCL6, 300 nM BCOR-AF633 peptide, 2 hours incubation
row,HTRF avg pIC50 (1 nM),Compound
1,7.17,"C[C@@H]1CN(c2ncc(Cl)c(Nc3ccc4c(c3)c3c(c(=O)n4CCO)OCC[C@H](C4CC4)N3)n2)C[C@H](C)C1(F)F [Example 16a, (R)-10-((5-chloro-2-((3S,5R)-4,4-difluoro-3,5-dimethylpiperidin-1-yl)pyrimidin-4-yl)amino)-2-cyclopropyl-7-(2-hydroxyethyl)-1,2,3,4-tetrahydro-[1,4]oxazepino[2,3-c]quinolin-6(7H)-one]"
2,6.19,"C[C@@H]1CN(c2ncc(Cl)c(Nc3ccc4c(c3)c3c(c(=O)n4C)C(=O)OC[C@H](C4CC4)N3)n2)C[C@H](C)O1 [Example 8n, (S)-10-((5-chloro-2-((2S,6R)-2,6-dimethylmorpholino)pyrimidin-4-yl)amino)-2-cyclopropyl-7-methyl-2,3-dihydro-[1,4]oxazepino[6,5-c]quinoline-5,6(1H,7H)-dione]"
3,8.46,"C[C@H]1CN(c2ncc(Cl)c(Nc3ccc4c(c3)c3c(c(=O)n4C)OCC(F)(F)[C@H](C4CC4)N3)n2)CCO1 [Example 12t, (S)-10-((5-chloro-2-((S)-2-methylmorpholino)pyrimidin-4-yl)amino)-2-cyclopropyl-3,3-difluoro-7-methyl-1,2,3,4-tetrahydro-[1,4]oxazepino[2,3-c]quinolin-6(7H)-one]"
4,6.99,"(S)-10-((5-chloro-2-((3S,5R)-3-hydroxy-5- methylpiperidin-1-yl)pyrimidin-4-yl)amino)-2,7-dimethyl-1,2,3,4- tetrahydro-[1,4]oxazepino[2,3-c]quinolin-6(7H)-one or (S)-10-((5- chloro-2-((3R,5S)-3-hydroxy-5-methylpiperidin-1-yl)pyrimidin-4- yl)amino)-2,7-dimethyl-1,2,3,4-tetrahydro- [1,4]oxazepino[2,3-c]quinolin-6(7H)-one [Example 12l]"
5,6.38,"C[C@@H]1CN(c2ncc(Cl)c(Nc3ccc4c(c3)c3c(c(=O)n4C)C(=O)OC[C@H](C4CC4)N3)n2)C[C@H](C)C1(F)F [Example 8k, (S)-10-((5-chloro-2-((3S,5R)-4,4-difluoro-3,5-dimethylpiperidin-1-yl)pyrimidin-4-yl)amino)-2-cyclopropyl-7-methyl-2,3-dihydro-[1,4]oxazepino[6,5-c]quinoline-5,6(1H,7H)-dione]"
6,6.69,"C[C@H]1COC(=O)c2c(c3cc(Nc4nc(N5CCC6(CCCN(C)C6=O)CC5)ncc4Cl)ccc3n(C)c2=O)N1 [Example 8e, (S)-10-((5-chloro-2-(2-methyl-1-oxo-2,9-diazaspiro[5.5]undecan-9-yl)pyrimidin-4-yl)amino)-2,7-dimethyl-2,3-dihydro-[1,4]oxazepino[6,5-c]quinoline-5,6(1H,7H)-dione]"
7,8.34,"(S)-10-((5-chloro-2-((R)-4,4-difluoro-3- (hydroxymethyl)piperidin-1-yl)pyrimidin-4-yl)amino)-2-cyclopropyl- 3,3-difluoro-7-methyl-1,2,3,4-tetrahydro-[1,4]oxazepino[2,3-c]quinolin- 6(7H)-one or (S)-10-((5-chloro-2-((S)-4,4-difluoro-3- (hydroxymethyl)piperidin-1-yl)pyrimidin-4-yl)amino)-2-cyclopropyl- 3,3-difluoro-7-methyl-1,2,3,4-tetrahydro-[1,4]oxazepino[2,3-c]quinolin- 6(7H)-one [Example 12p]"
8,8.60,"C[C@@H]1C[C@H](O)CN(c2ncc(Cl)c(Nc3ccc4c(c3)c3c(c(=O)n4C)OCC(F)(F)[C@H](C4CC4)N3)n2)C1 (single isomer, unassigned) [Example 13e, (S)-10-((5-chloro-2-((3S,5R)-3-hydroxy-5-methylpiperidin-1-yl)pyrimidin-4-yl)amino)-2-cyclopropyl-3,3-difluoro-7-methyl-1,2,3,4-tetrahydro-[1,4]oxazepino[2,3-c]quinolin-6(7H)-one or (S)-10-((5-chloro-2-((3R,5S)-3-hydroxy-5-methylpiperidin-1-yl)pyrimidin-4-yl)amino)-2-cyclopropyl-3,3-difluoro-7-methyl-1,2,3,4-tetrahydro-[1,4]oxazepino[2,3-c]quinolin-6(7H)-one]"

# Continued, compound first:
row,Compound,HTRF avg pIC50 (1 nM)
1,"CN1CC2CC(C1)N2c1ncc(Cl)c(Nc2ccc3c(c2)c2c(c(=O)n3C)OCC(F)(F)[C@H](C3CC3)N2)n1 [Example 13h, (2S)-10-((5-chloro-2-(3-methyl-3,6-diazabicyclo[3.1.1]heptan-6-yl)pyrimidin-4-yl)amino)-2-cyclopropyl-3,3-difluoro-7-methyl-1,2,3,4-tetrahydro-[1,4]oxazepino[2,3-c]quinolin-6(7H)-one: formic acid (1:1)]",8.43
2,"Cn1c(=O)c2c(c3cc(Nc4ccnc(Cl)c4C#N)ccc31)NC(C1CC1)CO2 (centres unmarked) [Example 1m, 2-chloro-4((2-cyclopropyl-6-methyl-5-oxo-2,3,5,6-tetrahydro-1H-[1,4]oxazino[2,3-c]quinolin-9-yl)amino)nicotinonitrile]",6.20
3,"Cn1c(=O)c2c(c3cc(Nc4nc(N5C6CCC5COC6)ncc4F)ccc31)N[C@@H](C1CC1)C(F)(F)CO2 [Example 13j, (S)-10-((2-(3-oxa-8-azabicyclo[3.2.1]octan-8-yl)-5-fluoropyrimidin-4-yl)amino)-2-cyclopropyl-3,3-difluoro-7-methyl-1,2,3,4-tetrahydro-[1,4]oxazepino[2,3-c]quinolin-6(7H)-one]",8.60
4,"Cn1c(=O)c2c(c3cc(Nc4ccnc(Cl)c4C#N)ccc31)NC(C1CCC1)CO2 (centres unmarked) [Example 1n, 2-chloro-4-((2-cyclobutyl-6-methyl-5-oxo-2,3,5,6-tetrahydro-1H-[1,4]oxazino[2,3-c]quinolin-9-yl)amino)nicotinonitrile]",5.70
5,"CC1COc2c(c3cc(Nc4ccnc(Cl)c4C#N)ccc3n(C)c2=O)N1 (centres unmarked) [Example 1k, 2-chloro-4-((2,6-dimethyl-5-oxo-2,3,5,6-tetrahydro-1H-[1,4]oxazino[2,3-c]quinolin-9-yl)amino)nicotinonitrile]",5.91

# Same assay, conditions: HTRF avg pIC50 (1 nM), 1 nM Trx-6×His-BCL6, 300 nM BCOR-AF633 peptide, 2 hours incubation
row,IC50,Compound
1,166 nM,"Cn1c(=O)c2c(c3cc(Nc4ccnc(Cl)c4C#N)ccc31)N[C@@H](C1CC1)COC2=O [Example 6b, (S)-2-chloro-4-((2-cyclopropyl-7-methyl-5,6-dioxo-1,2,3,5,6,7-hexahydro-[1,4]oxazepino[6,5-c]quinolin-10-yl)amino)nicotinonitrile]"
2,8.91 nM,"Cn1c(=O)c2c(c3cc(Nc4cc(C(=O)O)nc(Cl)c4C#N)ccc31)N[C@@H](C1CC1)CCO2 [Example 2b, (R)-6-chloro-5-cyano-4-((2-cyclopropyl-7-methyl-6-oxo-1,2,3,4,6,7-hexahydro-[1,4]oxazepino[2,3-c]quinolin-10-yl)amino)picolinic acid]"
3,214 nM,"CC1Nc2c(c(=O)n(C)c3ccc(Nc4ccnc(Cl)c4C#N)cc23)C(=O)OC1C (centres unmarked) [Example 6d, 2-chloro-4-((2,3,7-trimethyl-5,6-dioxo-1,2,3,5,6,7-hexahydro-[1,4]oxazepino[6,5-c]quinolin-10-yl)amino)nicotinonitrile]"

# Same assay, conditions: read-out: IC50 in the HTRF assay
row,IC50,Compound
1,> 2500 nM,"CC1CC(C)(C)Oc2c(c3cc(Nc4ccnc(Cl)c4C#N)ccc3n(C)c2=O)N1 (centres unmarked) [2-chloro-4-((2,4,4,7-tetramethyl-6-oxo-1,2,3,4,6,7-hexahydro-[1,4]oxazepino[2,3-c]quinolin-10-yl)amino)nicotinonitrile]"
